Test results taken from patent publication US10865203B2, “Ligands selective to alpha 6 subunit-containing GABAA receptors and their methods of use” (UWM Research Foundation, Inc., priority 2015, dated 2020).

What was measured:
[1] = tested on: male Wistar rats; test: Rotarod performance, pilot experiment; format: in vivo, rat; settings: acute, dose range 10-55 mg/kg, 20 min after administration
[2] = tested on: IoN-CCl Wistar rats; test: IoN-CCl neuropathic pain model, von Frey filaments; format: in vivo, rat
Protocol: (§1) Chronic constriction injury (CCl) is a common neuropathic pain model. The unilateral ligature of the infraorbital nerve (IoN) in rats, as an animal model of peripheral neuropathic pain, and more specifically, trigeminal neuralgia and trigeminal neuropathy, was performed as described by Desuere and Hans (Deseure et al. J. Vis. Exp. 2015, 103, e53167). Wistar rats (46 in total) were randomly assigned to one of four experimental groups and then were behaviorally tested in a blinded manner. For studying the effects of subchronic treatment with the nanoemulsion formulation of DK-I-56-1 in IoN-CCl rats, DK-I-56-1 (10 mg/kg i.p.) or its vehicle (placebo nanoemulsion i.p.) were injected daily for 14 consecutive days after surgery. Sham-operated rats were treated in parallel. By a procedure slightly modified from Djordjevic et al. (Int. J. Pharm. 2015, 493, 40-54), biocompatible nanoemulsions were prepared by high pressure homogenization at 50° C. […] First, the response to the application of a graded series of three von Frey filaments onto ipsilateral vibrissal pad was measured on pre-operative days −3 and −1 and post-operative days 7, 14, 21, and 28. […] The other parameter, face grooming during body grooming, was manually assessed during 10 min of recording on pre-operative day −2 and post-operative days 2, 4, 8, and 15 (i.e. after 1, 3, 7, and 14 applications of treatment). […]

[3] = tested on: IoN-CCl Wistar rats; test: IoN-CCl model, face grooming during body grooming; format: in vivo, rat; settings: 10 mg/kg i.p. daily; 10 min of recording
Protocol: as §1

[4] = Rapid equilibrium dialysis assay, free fraction; format: in vitro ADME; settings: rat, read-out: free fraction in rat blood
Excerpt: Five pharmacokinetic studies have been performed; four in male Wistar rats and one in male Swiss mice.

[5] = target: T1, α1,4,6β3δ receptors (Rattus norvegicus, UniProt P30191+P63079); test: Electrophysiology in Xenopus oocytes, delta-containing receptors; format: cell-based; settings: measured at EC20
T1 construct: expressed in transfected cells; host or cells: Xenopus laevis oocytes injected with subunit mRNA (3:1:5)
T1 sequence (P30191 20-453): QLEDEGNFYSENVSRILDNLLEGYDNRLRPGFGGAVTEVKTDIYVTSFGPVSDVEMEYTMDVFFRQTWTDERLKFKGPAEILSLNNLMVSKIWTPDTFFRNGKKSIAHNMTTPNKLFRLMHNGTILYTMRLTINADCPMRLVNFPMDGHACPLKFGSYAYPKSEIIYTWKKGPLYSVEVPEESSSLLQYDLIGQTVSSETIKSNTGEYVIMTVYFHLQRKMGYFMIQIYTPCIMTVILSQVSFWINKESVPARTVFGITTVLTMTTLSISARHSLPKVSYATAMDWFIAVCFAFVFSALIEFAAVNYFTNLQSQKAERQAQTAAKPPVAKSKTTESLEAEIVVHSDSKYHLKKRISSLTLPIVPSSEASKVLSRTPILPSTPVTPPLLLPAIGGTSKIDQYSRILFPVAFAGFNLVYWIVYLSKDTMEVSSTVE
T1 sequence (P63079 26-473): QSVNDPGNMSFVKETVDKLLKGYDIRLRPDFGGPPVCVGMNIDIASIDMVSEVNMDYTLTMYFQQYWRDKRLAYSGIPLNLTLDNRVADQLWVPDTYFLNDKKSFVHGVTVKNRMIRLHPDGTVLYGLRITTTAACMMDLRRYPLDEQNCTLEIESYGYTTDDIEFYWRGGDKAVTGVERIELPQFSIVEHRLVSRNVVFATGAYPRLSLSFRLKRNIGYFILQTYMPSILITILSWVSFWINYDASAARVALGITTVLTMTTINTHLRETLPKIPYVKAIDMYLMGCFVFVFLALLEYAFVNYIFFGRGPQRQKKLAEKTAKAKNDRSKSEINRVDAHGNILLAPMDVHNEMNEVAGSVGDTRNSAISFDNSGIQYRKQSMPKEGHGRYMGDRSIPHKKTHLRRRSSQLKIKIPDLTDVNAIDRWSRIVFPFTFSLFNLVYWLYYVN
T1 sequence (P18506 25-449 partner): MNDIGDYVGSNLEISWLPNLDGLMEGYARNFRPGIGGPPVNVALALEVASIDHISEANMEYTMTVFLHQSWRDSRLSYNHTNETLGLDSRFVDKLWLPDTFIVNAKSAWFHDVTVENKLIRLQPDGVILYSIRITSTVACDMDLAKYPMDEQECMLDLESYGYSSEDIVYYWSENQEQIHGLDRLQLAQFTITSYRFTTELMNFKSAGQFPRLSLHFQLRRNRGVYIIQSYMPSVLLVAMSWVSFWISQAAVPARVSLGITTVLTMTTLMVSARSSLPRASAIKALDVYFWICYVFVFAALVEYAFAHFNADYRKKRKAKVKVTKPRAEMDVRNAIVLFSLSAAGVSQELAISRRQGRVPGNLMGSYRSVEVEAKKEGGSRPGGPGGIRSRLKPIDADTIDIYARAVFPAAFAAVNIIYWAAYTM
Protocol: Mature female Xenopus laevis (Nasco, Fort Atkinson, Wis., USA) were anaesthetized in a bath of ice-cold 0.17% Tricain (Ethyl-m-aminobenzoat, Sigma-Aldrich, St. Louis, Mo., USA) before decapitation and transfer of the frog's ovary to ND96 medium (96 mM NaCl, 2 mM KCl, 1 mM MgCl2, 5 mM HEPES; pH 7.5). Following incubation in 1 mg/mL collagenase (Sigma-Aldrich, St. Louis, Mo., USA) for 30 min, stage 5 to 6 oocytes were singled out of the ovary and defolliculated using a platinum wire loop. Oocytes were stored and incubated at 18° C. in NDE medium (96 mM NaCl, 2 mM KCl, 1 mM MgCl2, 5 mM HEPES, 1.8 mM CaCl2; pH 7.5) that was supplemented with 100 U per mL-1 penicillin, 100 μg per mL-1 streptomycin and 2.5 mM pyruvate. Oocytes were injected with an aqueous solution of mRNA. A total of 2.5 ng of mRNA per oocyte was injected. Subunit ratio was 1:1:5 for αxβγ2 (x=1, 2, 3, 5) and 3:1:5 for α4/6β3γ2 and αβδ receptors. Injected oocytes were incubated for at least 36 h before electrophysiological recordings. Oocytes were placed on a nylon-grid in a bath of NDE medium. For current measurements, the oocytes were impaled with two microelectrodes (2-3MΩ), which were filled with 2 M KCl. The oocytes were constantly washed by a flow of 6 mL per min-1 NDE that could be switched to NDE containing GABA and/or drugs. […] All recordings were performed at room temperature at a holding potential of −60 mV using a Warner OC-725C TEV (Warner Instrument, Hamden, Conn., USA) or a Dagan CA-1B Oocyte Clamp or a Dagan TEV-200A TEV (Dagan Corporation, Mineapolis, Minn., USA). Data were digitized using a Digidata 1322A or 1550 data acquisition system (Axon Instruments, Union City, Calif., USA), recorded using Clampex 10.5 software (Molecular Devices, Sunnyvale, Calif., USA), and analyzed using Clampfit 10.5 and GraphPad Prism 6.0 (La Jolla, Calif., USA) software. Concentration-response data were fitted using the Hill equation. Data are given as mean±SEM from at least three oocytes of two batches.
For selected test compounds full dose response curves were recorded in α1-6β3γ2 receptors. For selected compounds, dose response curves in additional receptor subtypes (α1, 4, 6β3δ, α6β1, 2γ2, α1-6β3) were also obtained. For a wider panel of compounds, a two point screening pharmacology was obtained at 1 and 10 μM compound concentrations.

[6] = tested on: mice, forelimb grip strength; test: Grip strength test; format: in vivo, mouse; settings: 3 mg/kg, 15 min after treatment
Protocol: Forelimb grip strength was measured by the grip force of forepaws of the mouse using the sdi grip strength system (San Diego Instrument, San Diego, Calif.). The grip strength was recorded by the maximum of three permissible readings (in grams). The test was conducted every 2 min for three times, and the averaged grip strength was recorded. Animals were treated with the tested drug or vehicle for 15 min before the test.

[7] = tested on: mice, elevated plus maze; test: Elevated plus maze (EPM) test; format: in vivo, mouse; settings: 3 mg/kg or 10 mg/kg i.p., 10 min before the tests
Protocol: The epm test was conducted in a plexiglas maze apparatus (San Diego Instruments, San Diego, Calif.), consisting of a central platform (5×5 cm) with four arms (30×5 cm); two open and two closed arms with 25 cm-high sidewalls. The maze is elevated 38.5 cm from the room's floor. The mouse was placed at the central platform of the maze facing one of open arms and its behaviors in the maze were video-recorded and analyzed every 5 min-test session by the ethovision video tracking system (noldus information technology, wageningen, netherlands). The time spent for each mouse in the open or closed arm or the central platform as well as the distances traveled in the open or closed arm were measured. The degree of anxiety was accessed by the ratio of the time spent or the distance traveled in two open arms in a 5 min-test session.

For `[2H]C([2H])([2H])Oc1ccc(-n2nc3c4ccc(OC)cc4[nH]cc-3c2=O)cc1` [DK-I-56-1, 7-Methoxy-2-(4-methoxy-d3-phenyl)-2,5-dihydro-3H-pyrazolo[4,3-c]quinolin-3-one], the rotarod performance [1] was “did not impair”, the “anti-allodynic effect, response score to von Frey filaments, post-operative days 14 and 21” value ([2]; 10 mg/kg i.p. nanoemulsion daily for 14 days after surgery) was “statistically significant” and the “anti-allodynic effect, post-operative day 28” value ([2]; 14 days after the last dose) was “disappeared”. For the same molecule, the “face grooming during body grooming” value [3] was “lack of sedation-like or motor-impairing influences” and the fraction unbound [4] was under 0.005.

For `[2H]C([2H])([2H])Oc1ccc2c3nn(-c4ccc(OC)nc4)c(=O)c-3c[nH]c2c1` [DK-I-86-1, 7-Methoxy-d3-2-(6-methoxypyridin-3-yl)-2,5-dihydro-3H-pyrazolo[4,3-c]quinolin-3-one], the “Receptor potentiation in the α6β3δ receptor” value [5] was “modulated”.

For `COc1ccc(-n2nc3c4ccc(OC)cc4[nH]cc-3c2=O)cc1` [Compound 6, 7-Methoxy-2-(4-methoxyphenyl)-2,5-dihydro-3H-pyrazolo[4,3-c]quinolin-3-one], the grip strength [6] was “did not affect” and the anxiolytic activity [7] was “neither displayed any significant”.
